From PMC5095062, “The novel choline kinase inhibitor ICL-CCIC-0019 reprograms cellular metabolism and inhibits cancer cell growth” (Oncotarget, 2016)
Read-outs that look alike come from different tables or passages of the source.

What was measured:
HCT116 cells [1] = test: [3H]choline uptake in HCT116 cells; format: cell-based; details: Homo sapiens, HCT-116
Experimental: (§1) Enzymatic kinase activity, [^3H]choline to [^3H]PCho conversion and growth inhibition assays was conducted as previously described. [^3H]choline incorporation into soluble and lipid fractions was determined by a pulse-chase experiment. HCT116 cells were seeded at a density of 3 × 10^5 cell per well into 12-well plates and incubated overnight. Cells were treated with 1 or 10 μM ICL-CCIC-0019 for 1 h and pulsed in presence of inhibitor with 18.5 kBq/mL [^3H]choline chloride in 500 μL for 1 additional h. Cells were briefly rinsed with RPMI and incubated with fresh, non-radioactive medium for 6 h. Metabolites were extracted as described elsewhere, but additionally the radioactivity of the choline-containing and chloroform (lipid-containing) fractions was measured. Uptake of radiolabeled metabolite-tracers was measured as described elsewhere. Antiproliferative activity was measured after 72 h continuous exposure to inhibitors by sulforhodamine B (SRB) assay as described elsewhere. Apoptosis was determined using Caspase 3/7 Glo assay (Promega) according to the manufacturer's instructions.

[2] = target: recombinant human Δ49N CHKA2 (Homo sapiens, UniProt P35790); test: Enzymatic inhibition of choline kinase activity; format: biochemical
Experimental: as §1

[3] = tested on: panel of 131 human kinases; test: Kinase selectivity screen (whole panel); format: biochemical; details: 10 μM
Experimental: (§2) The substantially less demanding synthesis of ICL-CCIC-0019 compared with MN58B bears additional advantages. […] This consequently diminished intracellular PCho concentration, and importantly, the incorporation of [^3H]-choline into lipids (Figure 1D). […] To assess kinase specificity, ICL-CCIC-0019 was tested against a panel of 131 human kinases (Figure 1E and Supplementary Table S1). […] Inhibition greater than 20% was attained for insulin-like growth factor 1 (IGF-1R, 35 ± 7% inhibition), mitogen-activated protein kinase-activated protein kinase 3 (MAPKAP-K3, 33 ± 6%), extracellular signal regulated kinase 8 (ERK8, 31 ± 4%), ribosomal S6 kinase 1 (RSK1, 22 ± 6%), and v-erb-a erythroblastic leukemia viral oncogene homolog 4 (HER4, 21 ± 7%).

HCT116 cells [4] = test: DNA cell cycle analysis (flow cytometry, propidium iodide); format: cell-based, human
Experimental: Supernatant and cells were harvested, washed and centrifuged. The cell pellet was resuspended it 1 mL ice-cold PBS and the suspension added to 9 mL 70% ethanol, while mixing gently. Cells were fixed for at least 2 hours at −20°C. Cells were centrifuged and rehydrated in 3 mL cold PBS for 15 minutes. Samples were stained in 500 μL buffer containing 100 mM Tris pH 7.4, 150 mM NaCl, 1 mM CaCl2, 0.5 mM MgCl2, 0.1% Triton X-100, 0.1 mg/ml RNase A, 50 μg/ml propidium iodide (all items from Sigma-Aldrich) at 37°C for 3 h protected from light. Data were acquired on a BD FACS Canto flow cytometer (BD Bioscience) and analyzed using FlowJo 7.6.4 software (Tree Star).

[5] = Tissue pharmacokinetics in HCT116 xenograft bearing mice; format: in vivo, BALB/c nude mice; details: 10 mg/kg i.p.
Experimental: (§3) Plasma pharmacokinetic parameters of ICL-CCIC-0019 were established in female BALB/c mice aged 6–8 weeks (Harlan). Mice were intraperitoneally (i.p.) or perorally (p.o.) administered a single dose of 10 mg/kg and blood collected by cardiac puncture after 5, 15, 30 minutes and 1, 2, 4, 6 and 24 h. For tissue pharmacokinetic studies, HCT116 xenograft bearing mice were administered 10 mg/kg ICL-CCIC-0019 i.p. and blood collected after 5 minutes, 2, 6 and 24 h. Plasma was obtained by centrifugation at 1000 × g for 10 minutes. Samples were snap-frozen and stored at −80°C prior to analysis. Analysis was carried out by Cyprotex Inc. using liquid chromatography–mass spectrometry (LC–MS). For analysis of plasma metabolites, 2-hour samples of tissue pharmacokinetic studies were pooled.

HCT116 xenografts = test: Antitumor activity in HCT116 xenograft model; format: in vivo, BALB/c nude mice; details: 5 mg/kg i.p. once a day on days 1–3, 11 day recovery
Experimental: All animal experiments were conducted in accordance with the United Kingdom Home Office Guidance on the Operation of The Animals (Scientific Procedures) Act 1986 Amendment Regulations 2012 and within the published guidelines for the welfare and use of animals in cancer research. Xenografts were established in female BALB/c nude mice aged 6–8 weeks (Harlan) by subcutaneous (s.c.) injection of 100 μL HCT116 cells (5 × 10^6 in PBS) on the back of mice. Tumor dimensions were frequently measured by calliper and volumes calculated by the following equation: volume (mm^3) = (π/6) × a × b × c, where a, b, and c represent 3 orthogonal axes of the tumor. When tumor volumes reached approximately 50–100 mm^3 (ca. 10 days post injection), mice were used for subsequent studies.

HCT116 cells [6] = test: TMRE mitochondrial membrane potential assay; format: cell-based, human; details: 10 μM, 24 h
Experimental: HCT116 cells were cultured as above with indicated inhibitors and subject to the tetramethylrhodamine ethyl ester dye method (TMRE) membrane potential assay according to the manufacturers instruction (Abcam ab113852) prior to FACS analysis.

DYRK2 = DYRK2 (Homo sapiens, UniProt Q92630); test: Kinase selectivity screen; format: biochemical; details: DYRK2, 10 μM
Experimental: as §2

GCK = GCK (Homo sapiens, UniProt Q12851); test: Kinase selectivity screen; format: biochemical
Experimental: as §2

SRPK1 = SRPK1 (Homo sapiens, UniProt Q96SB4); test: Kinase selectivity screen; format: biochemical; details: SRPK1, 10 μM
Experimental: as §2

TTBK1 = TTBK1 (Homo sapiens, UniProt Q5TCY1); test: Kinase selectivity screen; format: biochemical; details: TTBK1, 10 μM
Experimental: as §2

NUAK1 = NUAK1 (Homo sapiens, UniProt O60285); test: Kinase selectivity screen; format: biochemical; details: NUAK1, 10 μM
Experimental: as §2

PRK2 = PRK2 (Homo sapiens, UniProt Q16513); test: Kinase selectivity screen; format: biochemical; details: PRK2, 10 μM
Experimental: as §2

Aurora A = Aurora A (Homo sapiens, UniProt O14965); test: Kinase selectivity screen; format: biochemical
Experimental: as §2

HCT116 cells [7] = test: Antiproliferative activity (SRB); format: cell-based; details: Homo sapiens, HCT-116
Experimental: as §1

Plasma pharmacokinetics = format: in vivo, BALB/c mice; details: for AUC / Cmax / half-life: female, BALB/c, mouse, plasma; for half-life: 10 mg/kg
Experimental: as §3

Sequence of recombinant human Δ49N CHKA2 (P35790 50-457 limits assumed, stated change not applied): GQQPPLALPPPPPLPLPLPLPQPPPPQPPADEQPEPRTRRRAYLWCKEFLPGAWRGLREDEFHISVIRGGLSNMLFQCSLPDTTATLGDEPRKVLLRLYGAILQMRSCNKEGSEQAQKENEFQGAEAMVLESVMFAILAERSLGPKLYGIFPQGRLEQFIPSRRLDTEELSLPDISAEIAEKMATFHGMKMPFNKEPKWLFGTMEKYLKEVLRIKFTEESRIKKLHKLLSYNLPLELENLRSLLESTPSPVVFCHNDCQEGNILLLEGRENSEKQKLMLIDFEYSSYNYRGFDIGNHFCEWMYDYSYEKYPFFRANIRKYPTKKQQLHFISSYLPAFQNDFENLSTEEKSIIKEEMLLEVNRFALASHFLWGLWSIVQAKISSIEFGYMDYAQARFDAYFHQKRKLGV
Sequence of DYRK2 (Q92630 whole entry): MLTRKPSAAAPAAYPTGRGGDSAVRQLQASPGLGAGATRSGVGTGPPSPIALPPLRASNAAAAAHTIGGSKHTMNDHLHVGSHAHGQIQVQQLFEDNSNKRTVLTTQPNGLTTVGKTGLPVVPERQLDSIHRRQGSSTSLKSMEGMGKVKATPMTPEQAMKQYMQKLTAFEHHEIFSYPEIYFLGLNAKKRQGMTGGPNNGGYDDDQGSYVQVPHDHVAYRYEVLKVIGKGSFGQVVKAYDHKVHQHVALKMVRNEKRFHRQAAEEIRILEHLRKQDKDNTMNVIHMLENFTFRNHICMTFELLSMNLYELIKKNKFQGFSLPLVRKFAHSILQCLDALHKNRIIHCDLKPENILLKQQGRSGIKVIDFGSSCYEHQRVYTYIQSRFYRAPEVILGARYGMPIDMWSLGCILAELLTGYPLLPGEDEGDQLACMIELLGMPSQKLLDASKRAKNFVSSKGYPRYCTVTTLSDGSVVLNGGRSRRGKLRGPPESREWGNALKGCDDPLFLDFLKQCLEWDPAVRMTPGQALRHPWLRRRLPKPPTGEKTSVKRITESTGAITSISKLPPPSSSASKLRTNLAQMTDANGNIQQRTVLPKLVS
Sequence of GCK (Q12851 whole entry): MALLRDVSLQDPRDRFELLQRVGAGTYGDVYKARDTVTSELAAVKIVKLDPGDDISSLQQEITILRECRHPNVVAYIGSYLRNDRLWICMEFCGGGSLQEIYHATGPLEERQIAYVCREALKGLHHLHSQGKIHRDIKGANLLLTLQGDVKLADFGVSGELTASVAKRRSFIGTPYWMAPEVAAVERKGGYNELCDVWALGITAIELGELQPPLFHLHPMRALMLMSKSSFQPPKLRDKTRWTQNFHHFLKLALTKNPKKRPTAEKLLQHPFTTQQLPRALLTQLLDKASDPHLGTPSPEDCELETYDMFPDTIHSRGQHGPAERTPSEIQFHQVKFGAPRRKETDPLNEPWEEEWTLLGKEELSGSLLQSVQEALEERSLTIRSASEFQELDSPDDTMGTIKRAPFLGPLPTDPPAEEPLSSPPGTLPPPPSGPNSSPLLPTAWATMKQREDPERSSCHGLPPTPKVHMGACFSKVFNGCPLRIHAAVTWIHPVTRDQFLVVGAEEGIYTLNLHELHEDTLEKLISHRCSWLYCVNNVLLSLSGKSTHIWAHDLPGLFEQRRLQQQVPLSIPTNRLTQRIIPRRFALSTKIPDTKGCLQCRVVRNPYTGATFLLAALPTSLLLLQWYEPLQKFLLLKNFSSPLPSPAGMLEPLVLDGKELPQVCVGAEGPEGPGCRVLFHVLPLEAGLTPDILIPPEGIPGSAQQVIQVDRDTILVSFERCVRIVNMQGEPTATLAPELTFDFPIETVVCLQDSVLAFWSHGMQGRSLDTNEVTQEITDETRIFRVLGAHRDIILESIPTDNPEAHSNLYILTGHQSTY
Sequence of PRK2 (Q16513 whole entry): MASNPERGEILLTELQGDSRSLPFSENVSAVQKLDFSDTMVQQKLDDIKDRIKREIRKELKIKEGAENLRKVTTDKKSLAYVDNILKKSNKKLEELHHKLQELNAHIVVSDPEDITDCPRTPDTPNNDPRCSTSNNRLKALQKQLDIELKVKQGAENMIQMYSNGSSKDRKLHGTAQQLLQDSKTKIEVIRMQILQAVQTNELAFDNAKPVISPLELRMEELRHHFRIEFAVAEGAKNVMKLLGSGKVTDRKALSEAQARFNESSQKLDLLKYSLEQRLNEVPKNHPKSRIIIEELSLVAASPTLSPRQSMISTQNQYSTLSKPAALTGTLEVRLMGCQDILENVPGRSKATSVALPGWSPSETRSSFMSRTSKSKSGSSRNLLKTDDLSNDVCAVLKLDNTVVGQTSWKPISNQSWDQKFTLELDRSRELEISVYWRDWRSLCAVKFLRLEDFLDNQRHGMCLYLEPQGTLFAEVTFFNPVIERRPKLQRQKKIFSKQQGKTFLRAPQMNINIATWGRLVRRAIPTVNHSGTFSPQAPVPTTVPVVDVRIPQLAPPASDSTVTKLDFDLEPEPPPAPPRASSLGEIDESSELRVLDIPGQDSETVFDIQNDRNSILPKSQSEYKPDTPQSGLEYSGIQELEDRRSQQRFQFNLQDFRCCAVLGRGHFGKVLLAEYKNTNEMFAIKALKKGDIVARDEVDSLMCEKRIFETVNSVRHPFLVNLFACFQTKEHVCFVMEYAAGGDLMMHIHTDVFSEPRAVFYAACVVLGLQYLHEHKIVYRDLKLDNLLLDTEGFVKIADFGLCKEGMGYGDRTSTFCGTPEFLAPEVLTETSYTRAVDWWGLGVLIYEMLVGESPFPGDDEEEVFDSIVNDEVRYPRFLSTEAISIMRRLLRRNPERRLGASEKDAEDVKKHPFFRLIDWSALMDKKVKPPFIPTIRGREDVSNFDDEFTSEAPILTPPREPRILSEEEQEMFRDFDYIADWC
Sequence of TTBK1 (Q5TCY1 whole entry): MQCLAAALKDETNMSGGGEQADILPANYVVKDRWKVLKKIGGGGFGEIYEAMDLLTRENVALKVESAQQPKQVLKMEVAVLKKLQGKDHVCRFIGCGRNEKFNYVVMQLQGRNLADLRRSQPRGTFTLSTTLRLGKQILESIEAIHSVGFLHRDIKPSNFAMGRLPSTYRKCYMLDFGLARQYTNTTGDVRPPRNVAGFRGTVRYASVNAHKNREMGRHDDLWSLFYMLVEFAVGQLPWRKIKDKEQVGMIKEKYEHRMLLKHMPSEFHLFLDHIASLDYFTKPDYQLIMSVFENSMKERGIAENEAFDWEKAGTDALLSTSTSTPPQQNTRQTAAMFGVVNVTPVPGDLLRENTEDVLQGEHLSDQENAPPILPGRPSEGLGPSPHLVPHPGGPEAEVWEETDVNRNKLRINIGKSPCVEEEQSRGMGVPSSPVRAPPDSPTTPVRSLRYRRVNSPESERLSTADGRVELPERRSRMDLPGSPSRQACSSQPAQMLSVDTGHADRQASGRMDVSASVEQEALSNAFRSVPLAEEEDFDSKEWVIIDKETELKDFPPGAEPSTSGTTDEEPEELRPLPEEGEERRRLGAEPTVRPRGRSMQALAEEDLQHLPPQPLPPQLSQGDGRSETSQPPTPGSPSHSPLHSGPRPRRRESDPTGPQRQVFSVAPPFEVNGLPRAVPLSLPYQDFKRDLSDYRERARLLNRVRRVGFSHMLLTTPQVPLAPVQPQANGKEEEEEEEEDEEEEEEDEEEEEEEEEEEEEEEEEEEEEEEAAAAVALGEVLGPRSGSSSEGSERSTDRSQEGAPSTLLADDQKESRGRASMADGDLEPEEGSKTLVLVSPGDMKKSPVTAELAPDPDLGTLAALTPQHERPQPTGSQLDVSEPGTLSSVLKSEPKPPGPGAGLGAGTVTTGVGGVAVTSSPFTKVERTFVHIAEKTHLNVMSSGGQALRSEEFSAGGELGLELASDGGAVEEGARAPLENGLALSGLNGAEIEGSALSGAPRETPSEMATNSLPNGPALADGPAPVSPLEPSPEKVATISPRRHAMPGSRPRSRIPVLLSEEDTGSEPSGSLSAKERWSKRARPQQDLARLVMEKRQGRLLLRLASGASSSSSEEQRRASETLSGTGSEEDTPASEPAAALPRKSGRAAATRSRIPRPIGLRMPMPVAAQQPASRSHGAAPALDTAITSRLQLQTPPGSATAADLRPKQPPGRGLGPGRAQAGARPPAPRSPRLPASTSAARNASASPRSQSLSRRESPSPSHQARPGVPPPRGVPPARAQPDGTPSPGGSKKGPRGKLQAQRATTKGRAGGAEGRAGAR
Sequence of SRPK1 (Q96SB4 whole entry): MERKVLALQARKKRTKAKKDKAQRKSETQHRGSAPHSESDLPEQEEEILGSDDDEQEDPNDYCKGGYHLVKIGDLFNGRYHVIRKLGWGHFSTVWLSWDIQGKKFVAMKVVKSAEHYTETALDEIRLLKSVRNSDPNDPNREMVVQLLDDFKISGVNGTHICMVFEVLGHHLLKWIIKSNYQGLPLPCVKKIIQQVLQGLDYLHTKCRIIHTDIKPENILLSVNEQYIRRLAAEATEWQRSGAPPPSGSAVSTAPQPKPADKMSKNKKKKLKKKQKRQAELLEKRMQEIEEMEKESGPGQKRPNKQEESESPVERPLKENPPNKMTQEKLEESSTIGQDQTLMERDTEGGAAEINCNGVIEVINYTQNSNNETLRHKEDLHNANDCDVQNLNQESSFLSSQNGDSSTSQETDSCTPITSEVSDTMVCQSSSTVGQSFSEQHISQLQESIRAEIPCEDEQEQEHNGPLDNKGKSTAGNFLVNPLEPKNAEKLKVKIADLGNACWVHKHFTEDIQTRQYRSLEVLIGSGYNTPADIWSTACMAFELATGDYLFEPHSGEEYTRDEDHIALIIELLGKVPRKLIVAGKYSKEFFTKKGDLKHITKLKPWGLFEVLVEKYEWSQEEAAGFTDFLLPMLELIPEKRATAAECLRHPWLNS

## CN(C)c1cc[n+](CCCCCCCCCCCC[n+]2ccc(N(C)C)cc2)cc1 [ICL-CCIC-0019]
HCT116 cells [1]
  EC50: 980 ± 240 nM
[2]; CHKA inhibition
  potency compared with MN58B: equipotent to MN58B
  potency relative to CK37 (times more potent): > 500 times
[2]; read-out: IC50 of CHKA activity
  IC50: 270 ± 60 nM
[3]
  inhibition in all 131 kinases: ≤ 35%
[3]; 131 kinases
  number of kinases inhibited more than 20%: 5
HCT116 cells [4]; 10 μM, 24 h
  increase of cells in G1 phase: 2 fold
HCT116 cells [4]; 48 h
  increase of sub-G1 population: 3.7 fold
[5]
  time of peak tumor concentration post injection: 2 h
HCT116 xenografts
  antitumour activity: potent antitumour activity
HCT116 cells [6]
  TMRE-detectable mitochondrial membrane potential: decreased
DYRK2
  remaining activity at 10 µM: 96%
GCK
  remaining activity at 10 µM: 89%
SRPK1
  remaining activity at 10 µM: 106%
TTBK1
  remaining activity at 10 µM: 97%
NUAK1
  remaining activity at 10 µM: 103%
PRK2
  remaining activity at 10 µM: 94%
Aurora A
  remaining activity at 10 µM: 98%
HCT116 cells [7]
  GI50: 380 nM
Plasma pharmacokinetics; 10 mg/kg p.o.
  oral bioavailability: limited
Plasma pharmacokinetics; ip, 10 mg/kg I.P.
  AUC: 1.32 µM·h
  Cmax: 5300 nM
Plasma pharmacokinetics; ip, 10 mg/kg I.P., read-out: t1/2 (1)
  half-life: 0.0967 h
Plasma pharmacokinetics; ip, 10 mg/kg I.P., read-out: t1/2 (2) (converted)
  half-life: 11 h
Plasma pharmacokinetics; po, 10 mg/kg P.O, read-out: t1/2 (1)
  half-life: 0.167 h
Plasma pharmacokinetics; po, 10 mg/kg P.O, read-out: t1/2 (2) (converted)
  half-life: 56 h
Plasma pharmacokinetics; po, 10 mg/kg P.O
  AUC: 0.05 µM·h
  Cmax: 36 nM
